Publication PMC12567398, “New Assay Systems to Characterize the Broad-Spectrum Antiherpesviral and Non-Herpesviral Activity of Cyclin-Dependent Kinase (CDK) 8 Inhibitors” (Pharmaceuticals, 2025)
Read-outs that look alike come from different tables or passages of the source.

Legend:
[1] = Neutral Red uptake cell viability assay, MEF; details: mouse
[2] = test system: RhCMV; design: method as in ref 35, 38 (a number printed in a supplementary file, which may have a reference list of its own: not looked up in the article's list); details: Table S1; read-out: antiviral EC50, RhCMV; cited from earlier work
[3] = test system: SARS-CoV-2 d6-YFP; details: for CDK8 inhibitor sensitivity of SARS-CoV-2 in Caco-2 cells: in words
[4] = Neutral Red uptake cell viability assay, Vero; details: African green monkey, CC50, Vero (Fig 4F)
[5] = Neutral Red uptake cell viability assay, Caco-2; details: human
[6] = test system: ChCMV; design: method as in ref 35, 38 (a number printed in a supplementary file, which may have a reference list of its own: not looked up in the article's list); details: Table S1; read-out: antiviral EC50, ChCMV; cited from earlier work
[7] = test system: SARS-CoV-2 d6-YFP; assay: microbe, parasite or virus in culture
[8] = test system: vaccinia virus VV IHD-5; assay: microbe, parasite or virus in culture; assay type: cell-based; details: read-out: antiviral EC50, VV
[9] = test system: HHV-6A; design: method as in ref 35 (a number printed in a supplementary file, which may have a reference list of its own: not looked up in the article's list); details: Table S1; J-Jhan cells; read-out: antiviral EC50, HHV-6A (J-Jhan); cited from earlier work
[10] = in vitro; details: human
[11] = test system: EHV-1; assay: EHV-1-specific qPCR of virus release into culture medium; assay type: cell-based, equine herpesvirus 1
[12] = Neutral Red uptake / Alamar Blue cell viability assay, 293T; details: human
[13] = test system: EHV-1-GFP; assay: EHV-1-GFP antiviral assay, GFP fluorometry; assay type: cell-based, equine herpesvirus 1
[14] = test system: Epstein–Barr virus P3HR-1; assay: EBV lytic assay in TPA-induced P3HR-1 cells, qPCR; assay type: cell-based; details: Table S1, read-out: antiviral EC50, EBV
[15] = test system: JCPyV; design: method as in ref 35, 38 (a number printed in a supplementary file, which may have a reference list of its own: not looked up in the article's list); details: Table S1; read-out: antiviral EC50, JCPyV; cited from earlier work
[16] = Neutral Red uptake cell viability assay, COS-7; details: African green monkey
[17] = Neutral Red uptake cell viability assay, HFF; details: human
[18] = test system: HCMV; design: method as in ref 35, 38 (a number printed in a supplementary file, which may have a reference list of its own: not looked up in the article's list); details: Table S1; read-out: antiviral EC50, HCMV; cited from earlier work
[19] = test system: KSHV; design: method as in ref 35, 38 (a number printed in a supplementary file, which may have a reference list of its own: not looked up in the article's list); details: Table S1; read-out: antiviral EC50, KSHV; cited from earlier work
[20] = test system: HAdV; design: method as in ref 35, 38 (a number printed in a supplementary file, which may have a reference list of its own: not looked up in the article's list); details: Table S1; read-out: antiviral EC50, HAdV; cited from earlier work
[21] = test system: MCMV; design: method as in ref 35, 38 (a number printed in a supplementary file, which may have a reference list of its own: not looked up in the article's list); details: Table S1; read-out: antiviral EC50, MCMV; cited from earlier work
[22] = test system: RCMV; design: method as in ref 35, 38 (a number printed in a supplementary file, which may have a reference list of its own: not looked up in the article's list); details: Table S1; read-out: antiviral EC50, RCMV; cited from earlier work
[23] = test system: HHV-6A-GFP; assay: HHV-6A plaque reduction assay in HFFs
[24] = test system: HSV-1; design: method as in ref 35, 38 (a number printed in a supplementary file, which may have a reference list of its own: not looked up in the article's list); details: Table S1; read-out: antiviral EC50, HSV-1; cited from earlier work
[25] = test system: MHV-68-Luc; assay: MHV-68-Luc luciferase reporter assay; assay type: cell-based, murine herpesvirus 68
[26] = test system: VZV; design: method as in ref 35, 38 (a number printed in a supplementary file, which may have a reference list of its own: not looked up in the article's list); details: Table S1; read-out: antiviral EC50, VZV; cited from earlier work
[27] = test system: 293T-tdTom-Luc cells
[28] = test system: HCMV AD169-GFP; assay: HCMV time-of-addition reporter assay in HFFs, AD169-GFP
[29] = test system: HCMV Merlin-GFP; assay: HCMV time-of-addition reporter assay in HFFs, Merlin-GFP
[30] = test system: Vero cells
[31] = test system: GPCMV; design: method as in ref 35, 38 (a number printed in a supplementary file, which may have a reference list of its own: not looked up in the article's list); details: Table S1; read-out: antiviral EC50, GPCMV; cited from earlier work
[32] = test system: Caco-2 cells
[33] = test system: HCMV TB40-YFP; assay: HCMV time-of-addition reporter assay in HFFs, TB40-YFP
[34] = test system: MEFs
[35] = test system: P3HR-1 cells

CN(C)C(=O)Cn1cc(-c2ccc(-c3cncc4ccccc34)cc2)cn1 [BI-1347]
CC50 at 7 d [1]: > 100000 nM
EC50 [2]: 0.4 ± 0.5 nM
CDK8 inhibitor sensitivity of SARS-CoV-2 in Caco-2 cells [3]: low level of sensitivity
CC50 at 7 d [4]: > 100000 nM
CC50 at 3 d [5]: > 100000 nM
EC50 [6]: 10 ± 20 nM
EC50 ([7]; Severe acute respiratory syndrome coronavirus 2, Caco-2, 30 h, read-out: Antiviral mean EC50 based on YFP measurements): ≥ 15400 nM
EC50 ([7]; Severe acute respiratory syndrome coronavirus 2, Caco-2, read-out: antiviral EC50, SARS-CoV-2): 22800 ± 3200 nM
EC50 ([8]; Orthopoxvirus vaccinia): > 50000 nM
EC50 [9]: > 50000 nM
CC50 [10]: > 100000 nM
EC50 ([11]; EHV-1, qPCR / COS-7, read-out: EC50): < 3 nM
EC50 ([11]; Equus caballus): 20 ± 50 nM
EC50 ([11]; Equus caballus, read-out: antiviral EC50, EHV-1 (HFF)): 30 ± 30 nM
CC50 at 2 d [12]: 93000 ± 5000 nM
EC50 ([13]; COS-7): 80 nM
EC50 ([14]; human gammaherpesvirus 4, P3HR-1): 5500 ± 4200 nM
EC50 [15]: 700 ± 1600 nM
CC50 at 4 d ([16]; CC50, COS-7 (Fig 4F)): > 100000 nM
CC50 at 4 d ([16]; CC50, COS-7, listed with GFP / COS-7 (Fig 1E)): > 50000 nM
CC50 at 4 d ([16]; CC50, COS-7, listed with qPCR / COS-7 (Fig 1E)): > 50000 nM
CC50 ([17]; CC50, HFF, listed with qPCR / HFF (Fig 1E)): > 50000 nM
CC50 ([17]; mean CC50, HFF, HHV-6A assay conditions (Fig 2D)): > 100000 nM
EC50 [18]: 0.9 ± 0.7 nM
EC50 [19]: 300 ± 600 nM
EC50 [20]: 50 ± 100 nM
EC50 [21]: 20 ± 10 nM
EC50 [22]: 2 ± 4 nM
EC50 ([23]; Human betaherpesvirus 6A, read-out: Antiviral mean EC50 based on plaque assay measurements): 200 ± 200 nM
EC50 ([23]; Human betaherpesvirus 6A, read-out: antiviral EC50, HHV-6A (HFF)): 300 ± 200 nM
EC50 [24]: > 50000 nM
EC50 ([25]; Murine herpesvirus, COS-7, read-out: antiviral EC50, MHV-68 (COS-7), Table S1, COS-7): 0.1 ± 0.1 nM
EC50 ([25]; Murine herpesvirus, Vero, read-out: antiviral EC50, MHV-68 (Vero), Table S1, Vero): 0.5 ± 0.03 nM
EC50 ([25]; Murine herpesvirus, read-out: antiviral EC50, MHV-68 (HFF), Table S1, HFF): 40 ± 20 nM
EC50 ([25]; Murine herpesvirus, read-out: antiviral EC50, MHV-68 (MEF), Table S1, MEF): 6 ± 2 nM
EC50 [26]: 26000 ± 10000 nM

Cn1ncc2cc(-c3cnc(N)c(Cl)c3N3CCC4(CCNC4=O)CC3)ccc21 [CCT-251921]
CC50 [27]: 95300 ± 6600 nM
EC50 [2]: 3 ± 2 nM
CDK8 inhibitor sensitivity of SARS-CoV-2 in Caco-2 cells [3]: lack of CDK8 inhibitor sensitivity
EC50 ([3]; read-out: Antiviral mean EC50 based on YFP measurements, SARS-CoV-2 d6-YFP, Caco-2, […]): ≥ 15400 nM
EC50 ([3]; read-out: antiviral EC50, SARS-CoV-2, Table S1): 62400 ± 18500 nM
EC50 [6]: 30 ± 20 nM
EC50 ([28]; read-out: AD169-GFP EC50, drug addition 0 d p.i., readout 7 d p.i.): 0.7 ± 0.7 nM
EC50 ([28]; read-out: AD169-GFP EC50, drug addition 1 d p.i., readout 7 d p.i.): 3.2 ± 2.6 nM
EC50 ([28]; read-out: AD169-GFP EC50, drug addition 2 d p.i., readout 7 d p.i.): 8.3 ± 7.9 nM
EC50 ([28]; read-out: AD169-GFP EC50, drug addition 3 d p.i., readout 7 d p.i.): > 50 nM
EC50 ([28]; read-out: AD169-GFP EC50, drug addition 4 d p.i., readout 7 d p.i.): > 50 nM
EC50 [8]: > 50000 nM
EC50 [9]: 39000 ± 21000 nM
EC50 ([11]; EHV-1, qPCR / HFF, read-out: EC50): 800 nM
EC50 ([13]; EHV-1, GFP / COS-7, read-out: EC50): 100 nM
EC50 [14]: 2500 ± 1000 nM
EC50 [15]: 3700 ± 3000 nM
EC50 ([29]; read-out: Merlin-GFP EC50, drug addition 0 d p.i., readout 7 d p.i.): 0.7 ± 1.3 nM
EC50 ([29]; read-out: Merlin-GFP EC50, drug addition 1 d p.i., readout 7 d p.i.): 13 ± 8 nM
EC50 ([29]; read-out: Merlin-GFP EC50, drug addition 2 d p.i., readout 7 d p.i.): 3.4 ± 6.8 nM
EC50 ([29]; read-out: Merlin-GFP EC50, drug addition 4 d p.i., readout 7 d p.i.): 5.9 ± 4.9 nM
EC50 [18]: 4 ± 2 nM
CC50 [30]: > 100000 nM
EC50 [19]: 300 nM
EC50 [20]: 30 ± 30 nM
EC50 [31]: 50 ± 80 nM
EC50 [21]: > 40 nM
CC50 [32]: > 100000 nM
EC50 ([33]; read-out: TB40-YFP EC50, drug addition 0 d p.i., readout 7 d p.i.): 8.7 ± 5 nM
EC50 ([33]; read-out: TB40-YFP EC50, drug addition 1 d p.i., readout 7 d p.i.): 26 ± 4 nM
EC50 ([33]; read-out: TB40-YFP EC50, drug addition 2 d p.i., readout 7 d p.i.): > 50 nM
EC50 ([33]; read-out: TB40-YFP EC50, drug addition 3 d p.i., readout 7 d p.i.): > 50 nM
EC50 ([33]; read-out: TB40-YFP EC50, drug addition 4 d p.i., readout 7 d p.i.): > 50 nM
EC50 [22]: 20 ± 50 nM
CC50 [34]: > 100000 nM
EC50 ([23]; read-out: antiviral EC50, HHV-6A (HFF), Table S1, HFF): 40 ± 20 nM
CC50 [35]: > 100000 nM
EC50 [24]: > 50000 nM
EC50 ([25]; Table S1, COS-7, read-out: antiviral EC50, MHV-68 (COS-7)): 0.5 ± 0.9 nM
EC50 ([25]; Table S1, HFF, read-out: antiviral EC50, MHV-68 (HFF)): 500 ± 300 nM
EC50 ([25]; Table S1, MEF, read-out: antiviral EC50, MHV-68 (MEF)): 10 ± 9 nM
EC50 ([25]; Table S1, Vero, read-out: antiviral EC50, MHV-68 (Vero)): 2 ± 1 nM
EC50 [26]: 28000 ± 9000 nM
